What was measured:
[1] = Plasma stability in pooled human plasma; type: in vitro ADME; settings: for half-life: 37°C
Experimental: . […] The aqueous mobile phase was water with 0.1% formic acid and the organic mobile phase was acetonitrile with 0.1% formic acid. The gradient method has a flow rate of 0.8 mL/min, with a total run time of 2.5 min starting at 5% organic and increasing to 95% at 1.4 min, holding for 40 s before returning to 5% to re-equilibrate the column. • ii. Lipophilicity. Stock solutions (10 mM) of compounds were diluted to 100 μM in 96-well deep-well plate containing 300 µL of 1-octanol and 300 µL of phosphate buffer at pH 7.4. The plate was agitated on an orbital shaker at 750 rpm for 2 h. The organic and buffer layers of each well were transferred separately to a new analysis plate. The samples were analysed with the HPLC diode array detection as described for kinetic solubility. Samples from both layers were analysed to determine LogD7.4 values. • iii. Passive permeability. A parallel artificial membrane permeation assay (PAMPA) was used to assess the passive permeability of compounds with a 96-well MultiScreen filter plate ([…] pore size, Millipore). The filter plate was precoated with 5% hexadecane in hexane. Stock solutions of compounds were diluted to 1 mM in a donor buffer (pH 6.5). Lucifer yellow was added to the apical wells of the precoated MultiScreen plate containing compound donor solution. The donor buffer solutions were spiked with each test compound (1 mM). The acceptor-buffer solution was prepared by adding 10 μL DMSO to 990 μL acceptor buffer (pH 7.4) and 250 μL were added to the basolateral (acceptor) wells. The donor plate was carefully inserted into the acceptor plate and incubated at room temperature for 4 h. After the incubation period, 50 μL of samples from the acceptor plate were transferred to a round bottom 96-well plate, together with 30 μL of donor buffer for matrix matching. Theoretical equilibrium samples for each test compound were prepared by adding 150 μL of donor solutions to 250 μL acceptor solutions and left at room temperature. These theoretical equilibrium samples represent complete transfer of the compound into the donor well. For the theoretical equilibrium samples, 80 μL were added to the analysis plate. Lastly, 160 μL of the internal standard carbamazepine (0.1 μM) was added to all acceptor and equilibrium samples. A portion of the sample containing Lucifer yellow was analyzed on a BioRad iMarkTM Microplate Absorbance Reader (BioRad, Hercules, CA, United States; […]. Samples were analysed using reverse phase Gemini NX-C18 column (5 μm, 2.1 mm × 50 mm) with a Shimadzu HPLC coupled with an AB Sciex 3200 Q TRAP MS). […]. Plasma stability. Stock solutions of compounds in DMSO (10 mM) were used to spike pooled human plasma. […]
. Plasma protein binding was determined in pooled human plasma using an ultracentrifugation method. […]

[2] = Lipophilicity, 1-octanol/phosphate buffer pH 7.4; type: physicochemical; settings: read-out: Lipophilicity LogD7.4
[3] = test system: CQ-sensitive Plasmodium falciparum NF54 strain; assay: Fixed ratio combination (isobologram) experiments, 72-h pLDH assay; type: cell-based; settings: asexual blood stages, Pf NF54, fixed ratio isobologram
Experimental: Artemisone was used in the combination studies with each of AD01 and PhX6. Combination studies were conducted using a modified version of the method described by [Fivelman et al. (2004)] ([Fivelman et al., 2004]). Against drug-sensitive NF54 P. falciparum parasites in the standard 72-h pLDH assay. The drug stocks were then mixed to make 6 different volumetric ratios to obtain a range of concentrations (Table 2). Concentration ranges for combinations were prepared from the predetermined single IC50 values (Table 3) such that the IC50 of the individual compounds would be in the middle of the plate. The FIC50 and ∑FIC were calculated as described in Eqs 6–8 ([Fivelman et al., 2004]).
Eq. 6: FIC50 of compound A FIC50A=IC50 A+B/IC50 A
Eq. 7: FIC50 of compound B FIC50B=IC50 B+A/IC50 B
Finally, FIC50 values of compounds in respective combinations were plotted as isobolograms.
Although there is currently no standardised method to determine drug combination effects, many models are available ([Wagner and Ulrich-Merzenich, 2009]; [Matthews et al., 2017]). The fixed ratio isobologram method has been widely used in many fields including antimalarial drug discovery and development ([Fivelman et al., 2004]; [Wagner and Ulrich-Merzenich, 2009]; [Matthews et al., 2017]). […] The relationship can also be determined by plotting the FIC50 of each compound on separate axes to create an isobologram. […]

SMILES | half-life [1] | logD at 2 h [2] | Interaction in combination with artemisone (overall, in words) [3] | Parent remaining in plasma after 3 h ([1]; 3 h)
CCN(CC)c1ccc2nc3c4ccccc4/c(=N\c4ccccn4)cc-3oc2c1 [PhX6] | > 2.5 h | 1 | enhanced synergistically | –
CCN(CC)c1ccc2nc3ccc(=[N+](CC)CC)cc-3sc2c1 [AD01] | 1.42 h | 0.2 | enhanced synergistically | 21%

From paper PMC10800708, “Efficacies and ADME properties of redox active methylene blue and phenoxazine analogues for use in new antimalarial triple drug combinations with amino-artemisinins” (Frontiers in Pharmacology, 2024)
